Data as given in PMC13371181, “A paracrine-to-autocrine shunt of GREM1 fuels colorectal cancer metastasis via ACVR1C” (Molecular Cancer, 2026).
Entries after “also recorded” stand apart in the source; their conditions may differ.

Tests used:
[1] = system: SNAI1 promoter; experiment: ChIP–qPCR, SMAD2/3/4 binding to SNAI1 promoter; type: cell-based, human; details: SW480 cells, SB505124 10 µM, 24 h, n = 3 independent experiments
Experimental: (§1) SW480 cells were starved in DMEM with 1% FCS overnight before treatment with vehicle, 10 µM SB505124 for 24 h. Cells were fixed in 1% paraformaldehyde for 10 min at RT for DNA-protein cross-linking, followed by quenching with glycine. Cross-linking chromatin was prepared using the SimpleChIP® Enzymatic Chromatin IP Kit (CST, 9002) according to the manufacturer’s instructions. For immunoprecipitation, 10 µg chromatin was incubated with 10 µL anti-histone H3 rabbit IgG (CST, 14269, positive control), 2 µL normal Rabbit IgG (CST, 2729) or 5 µL anti-SMAD2/3 rabbit IgG (CST, 8685) at 4 °C overnight. 2% chromatin prior to immunoprecipitation was used as input. Chromatin-protein-antibody complex was captured by protein G magnetic beads, and chromatin was released by reversal of cross-links and purified using the SimpleChIP® Enzymatic Chromatin IP Kit (CST, 9002) according to the manufacturer’s instructions. DNA was quantified by qPCR with primers targeting predicted SMAD2/3/4 binding regions on GREM1 or SNAI1 promoters. DNA levels were normalized to the input, and the fold-change of enrichment was calculated over the control. ChIP–qPCR primers are listed in Supplementary Table 2.

[2] = system: ACVR1C–SMAD2/3 pathway in HCT116 and SW480 cells; experiment: Immunoblotting p-SMAD2/3 (ACVR1C pathway); type: cell-based, human; details: HCT116 and SW480 cells, immunoblotting; GREM1-CM + GREM1 BAb or + SB505124 (1 µM)
Experimental: (§2) To investigate the effect of secreted GREM1 on CRC cells, an in vitro GREM1 secretion system was established using HEK293 cells. Stably GREM1-expressing cells (pcDNA3.1-GREM1) and empty-vector transfected cells (pcDNA3.1) were cultured in DMEM/F12 medium with 10% FBS until 40% confluence. After complete removal of the normal culture medium, HEK293-GREM1 and HEK293-Vec cells were continuously cultured in DMEM/F12 medium without FBS for 5 days before medium collection. GREM1 or Vector conditioned medium (GREM1-CM/Vec-CM) was then centrifuged at 1000 rpm for 30 min and the supernatant was collected for further study.
(§3) Protein was extracted from the cells with RIPA buffer (Beyotime, P0018) or NP40 lysis buffer (Beyotime, P0013F) and separated by SDS-PAGE, and transferred to polyvinylidene difluoride membranes. […] Band intensity was quantified using Fiji (ImageJ) by grayscale analysis.

[3] = system: GREM1 promoter; experiment: ChIP–qPCR, SMAD2/3/4 binding to GREM1 promoter; type: cell-based, human; details: SW480 cells, SB505124 10 µM, 24 h, n = 3 independent experiments
Experimental: as §1

[4] = system: HCT116 and SW480 cells; experiment: EMT markers by immunoblotting and RT–qPCR; type: cell-based, human; details: GREM1-CM + GREM1 BAb, + SB505124 (1 µM) or + different concentrations of sb4 (sb4: immunoblotting)
Experimental: as §2, §3
Total RNA was extracted using Trizol reagent (Invitrogen, 15596026). […] The SYBR Green Premix Pro Taq HS qPCR Kit (Accurate Biology, AG11701) was then used to quantify mRNA expression according to the manufacturer’s instructions. All results were calculated using the 2^−ΔΔCt method. […]

[5] = system: type I TGFβ/Activin receptors; details: SB505124; cited from earlier work
Experimental: Fig. 3 Secretory GREM1 binding of ACVR1C induces EMT via SMAD2/3 pathway. A, RNA sequencing was performed on HCT116 cells treated with GREM1 conditioned medium (GREM1-CM) or vector control conditioned medium (Vec-CM), followed by GSEA of the C2 gene sets. NES, normalized enrichment score; all P values equal to 0. B, Activation levels of the ACVR1C pathway markers (p-SMAD2/3 and SMAD2/3), as well as expression of the epithelial marker (E-CAD) and the mesenchymal markers (SNAIL, ZEB1, and β-CAT) were compared by immunoblotting analysis in SW480 and HCT116 cells treated with Vec-CM, GREM1-CM, GRE ...

[6] = system: HCT116 cells; experiment: Scratch assay, HCT116; type: cell-based, human; details: HCT116, scratch assay 24 h; n = 3 independent experiments
Experimental: as §2
(§4) Cells were seeded into 6-well plates after centrifugation and digestion with 0.05% trypsin. When the cell density reached 90%, three vertical lines were scratched in each well with a 10 µL pipette tip and the floating cells were gently washed away with 1×PBS. Complete medium was added, and images of the scratch area were taken at 0 h. Three different fields of view were selected for each well. After photography, the medium was replaced with serum-free medium. Wound healing was documented at the same location after 24–48 h of incubation.

[7] = system: SW480 cells; experiment: Scratch assay, SW480; type: cell-based, human; details: SW480, scratch assay 48 h; n = 3 independent experiments
Experimental: as §2, §4

SMAD2/3/4 binding to SNAI1 promoter −787 site [1]: significantly decreased this binding
SMAD2/3/4 binding to GREM1 promoter −733 and −612 sites [3]: significantly reduced this binding
Structure (SMILES): Cc1cccc(-c2[nH]c(C(C)(C)C)nc2-c2ccc3c(c2)OCO3)n1 [SB505124]
GREM1-CM-induced p-SMAD2/3, effect of inhibitor [2]: significantly blocked GREM1-CM–induced p-SMAD2/3 activation and EMT
GREM1-CM-induced EMT, effect of treatment [4]: significantly blocked GREM1-CM–induced p-SMAD2/3 activation and EMT
selectivity of SMAD2/3 phosphorylation block [5]: selectively blocks the type I TGFβ/Activin receptors-mediated SMAD2/3 phosphorylation
GREM1-CM-induced migration, effect of inhibitor [6]: abolished; also recorded: suppressed
GREM1-CM-induced migration, effect of inhibitor [7]: abolished; also recorded: suppressed
